Assay results as given in ChEMBL document CHEMBL1124001, “Synthesis and antileukemic activity of bis[[(carbamoyl)oxy]methyl]- substituted pyrrolo[2,1-a]isoquinolines, pyrrolo[1,2-a]quinolines, pyrrolo[2,1-a]isobenzazepines, and pyrrolo[1,2-a]benzazepines” (J Med Chem, 1988).

How the values were obtained:
Mus musculus [1] = assay: Net log cell kill was determined after injecting 7.5 mg/kg intraperitoneally in CD2F1 mice; type: functional; conditions: route intraperitoneal
Mus musculus [2] = assay: Net log cell kill was determined after injecting 1.88 mg/kg intraperitoneally in CD2F1 mice; type: functional; conditions: route intraperitoneal
Mus musculus [3] = assay: Net log cell kill was determined after injecting 15 mg/kg intraperitoneally in CD2F1 mice; type: functional; conditions: route intraperitoneal
Mus musculus [4] = assay: Body weight change of test animals to that of control was determined after injection at 60 mg/kg intraperitoneally in CD2F1 mice; type: functional; conditions: route intraperitoneal
Mus musculus [5] = assay: Body weight change of test animals to that of control was determined after injection at 7.5 mg/kg intraperitoneally in CD2F1 mice; type: functional; conditions: route intraperitoneal
Mus musculus [6] = assay: Net log cell kill was determined after injecting 3.75 mg/kg intraperitoneally in CD2F1 mice; type: functional; conditions: route intraperitoneal
Mus musculus [7] = assay: Body weight change of test animals to that of control was determined after injection at 1.88 mg/kg intraperitoneally in CD2F1 mice; type: functional; conditions: route intraperitoneal
Mus musculus [8] = assay: Body weight change of test animals to that of control was determined after injection at 15 mg/kg intraperitoneally in CD2F1 mice; type: functional; conditions: route intraperitoneal
Mus musculus [9] = assay: Body weight change of test animals to that of control was determined after injection at 3.75 mg/kg intraperitoneally in CD2F1 mice; type: functional; conditions: route intraperitoneal
Mus musculus [10] = assay: Body weight change of test animals to that of control was determined after injection at 30 mg/kg intraperitoneally in CD2F1 mice; type: functional; conditions: route intraperitoneal
Mus musculus [11] = assay: Toxicity day survivors was determined by the ratio of animals survived to that of test animals at 1.88 mg/kg intraperitoneally in CD2F1 mice; 6/6; type: organism-based; set-up: dose 1.88 mg/kg, route intraperitoneal; conditions: in vivo, ip
Mus musculus [12] = assay: Toxicity day survivors was determined by the ratio of animals survived to that of test animals at 3.75 mg/kg intraperitoneally in CD2F1 mice; 6/6; type: organism-based; set-up: dose 3.75 mg/kg, route intraperitoneal; conditions: in vivo, ip
Mus musculus [13] = assay: Toxicity day survivors was determined by the ratio of animals survived to that of test animals at 30 mg/kg intraperitoneally in CD2F1 mice; 4/6; type: organism-based; set-up: dose 30 mg/kg, route intraperitoneal; conditions: in vivo, ip
Mus musculus [14] = assay: Toxicity day survivors was determined by the ratio of animals survived to that of test animals at 60 mg/kg intraperitoneally in CD2F1 mice; 4/6; type: organism-based; set-up: dose 60 mg/kg, route intraperitoneal; conditions: in vivo, ip
Mus musculus [15] = assay: Toxicity day survivors was determined by the ratio of animals survived to that of test animals at 15 mg/kg intraperitoneally in CD2F1 mice; 5/5; type: organism-based; set-up: dose 15 mg/kg, route intraperitoneal; conditions: in vivo, ip
Mus musculus [16] = assay: Ratio of treated to that of untreated tumor-bearing control animals at 7.5 mg/kg intraperitoneally in CD2F1 mice was determined; type: functional; conditions: route intraperitoneal
Mus musculus [17] = assay: Ratio of treated to that of untreated tumor-bearing control animals at 1.88 mg/kg intraperitoneally in CD2F1 mice was determined; type: functional; conditions: route intraperitoneal
Mus musculus [18] = assay: Ratio of treated to that of untreated tumor-bearing control animals at 15 mg/kg intraperitoneally in CD2F1 mice was determined; type: functional; conditions: route intraperitoneal
Mus musculus [19] = assay: Toxicity day survivors was determined by the ratio of animals survived to that of test animals at 7.5 mg/kg intraperitoneally in CD2F1 mice; 6/6; type: organism-based; set-up: dose 7.5 mg/kg, route intraperitoneal; conditions: in vivo, ip
Mus musculus [20] = assay: Ratio of treated to that of untreated tumor-bearing control animals at 3.75 mg/kg intraperitoneally in CD2F1 mice was determined; type: functional; conditions: route intraperitoneal
Mus musculus [21] = assay: Net log cell kill was determined after injecting 60 mg/kg intraperitoneally in CD2F1 mice; type: functional; conditions: route intraperitoneal
Mus musculus [22] = assay: Net log cell kill was determined after injecting 120 mg/kg intraperitoneally in CD2F1 mice; type: functional; conditions: route intraperitoneal
Mus musculus [23] = assay: Net log cell kill was determined after injecting 240 mg/kg intraperitoneally in CD2F1 mice; type: functional; conditions: route intraperitoneal
Mus musculus [24] = assay: Net log cell kill was determined after injecting 30 mg/kg intraperitoneally in CD2F1 mice; type: functional; conditions: route intraperitoneal
Mus musculus [25] = assay: Body weight change of test animals to that of control was determined after injection at 120 mg/kg intraperitoneally in CD2F1 mice; type: functional; conditions: route intraperitoneal
Mus musculus [26] = assay: Body weight change of test animals to that of control was determined after injection at 240 mg/kg intraperitoneally in CD2F1 mice; type: functional; conditions: route intraperitoneal
Mus musculus [27] = assay: Toxicity day survivors was determined by the ratio of animals survived to that of test animals at 120 mg/kg intraperitoneally in CD2F1 mice; 6/6; type: organism-based; set-up: dose 120 mg/kg, route intraperitoneal; conditions: in vivo, ip
Mus musculus [28] = assay: Toxicity day survivors was determined by the ratio of animals survived to that of test animals at 240 mg/kg intraperitoneally in CD2F1 mice; 6/6; type: organism-based; set-up: dose 240 mg/kg, route intraperitoneal; conditions: in vivo, ip
Mus musculus [29] = assay: Toxicity day survivors was determined by the ratio of animals survived to that of test animals at 30 mg/kg intraperitoneally in CD2F1 mice; 6/6; type: organism-based; set-up: dose 30 mg/kg, route intraperitoneal; conditions: in vivo, ip
Mus musculus [30] = assay: Ratio of treated to that of untreated tumor-bearing control animals at 30 mg/kg intraperitoneally in CD2F1 mice was determined; type: functional; conditions: route intraperitoneal
Mus musculus [31] = assay: Ratio of treated to that of untreated tumor-bearing control animals at 60 mg/kg intraperitoneally in CD2F1 mice was determined; type: functional; conditions: route intraperitoneal
Mus musculus [32] = assay: Ratio of treated to that of untreated tumor-bearing control animals at 120 mg/kg intraperitoneally in CD2F1 mice was determined; type: functional; conditions: route intraperitoneal
Mus musculus [33] = assay: Toxicity day survivors was determined by the ratio of animals survived to that of test animals at 60 mg/kg intraperitoneally in CD2F1 mice; 6/6; type: organism-based; set-up: dose 60 mg/kg, route intraperitoneal; conditions: in vivo, ip
Mus musculus [34] = assay: Ratio of treated to that of untreated tumor-bearing control animals at 240 mg/kg intraperitoneally in CD2F1 mice was determined; type: functional; conditions: route intraperitoneal

SMILES: COc1ccc2c(c1)CCn1cc(COC(=O)NC(C)C)c(COC(=O)NC(C)C)c1-2
- KE (Mus musculus [1]): 5.83
- KE (Mus musculus [2]): 2.18
- KE (Mus musculus [3]): -1.07
- T-C (Mus musculus [4]): -4.6 g
- T-C (Mus musculus [5]): -4.8 g
- KE (Mus musculus [6]): 3.46
- T-C (Mus musculus [7]): -1.8 g
- T-C (Mus musculus [8]): -3 g
- T-C (Mus musculus [9]): -3.4 g
- T-C (Mus musculus [10]): -3.1 g
- TDS (Mus musculus [11]): 6
- TDS (Mus musculus [12]): 6
- TDS (Mus musculus [13]): 4
- TDS (Mus musculus [14]): 4
- TDS (Mus musculus [15]): 5
- T/C (Mus musculus [16]): 232%
- T/C (Mus musculus [17]): 174%
- T/C (Mus musculus [18]): 125%
- TDS (Mus musculus [19]): 6
- T/C (Mus musculus [20]): 194%

SMILES: Cc1c(COC(=O)NC(C)C)c(COC(=O)NC(C)C)c2ccc3ccccc3n12
- KE (Mus musculus [21]): 0.47
- KE (Mus musculus [22]): -1.5
- KE (Mus musculus [23]): -0.5
- T-C (Mus musculus [4]): -1.1 g
- KE (Mus musculus [24]): -0.53
- T-C (Mus musculus [25]): -1.8 g
- T-C (Mus musculus [26]): -3.5 g
- T-C (Mus musculus [10]): -0.5 g
- TDS (Mus musculus [27]): 6
- TDS (Mus musculus [28]): 6
- TDS (Mus musculus [29]): 6
- T/C (Mus musculus [30]): 135%
- T/C (Mus musculus [31]): 139%
- T/C (Mus musculus [32]): 106%
- TDS (Mus musculus [33]): 6
- T/C (Mus musculus [34]): 129%
